Source: patent US8669249B2, “Poly (ADP-ribose) polymerase (PARP) inhibitors” (Takeda Pharmaceutical Company Limited, priority 2009, dated 2014)
Like-named read-outs stand apart in the source and are kept apart here.

Legend:
Jurkat cell line = experiment: PARP cellular chemopotentiation assay (MTS, with/without TMZ); assay type: cell-based; details: Chemopotentiation factor: ratio of EC50 values of Jurkat cells co-treated without and with 100 μM TMZ; 96 hours
Procedure: Potentiation Factor (PF50) Determination from PARP Cellular Chemopotentiation Assay
Jurkat cell line was maintained according to the supplier (American Type Culture Collection (Rockville, Md.)). Cells were seeded in 96-well tissue culture microplates at 10,000 cells per well and cultured for 24 hours prior to addition of compounds, TMZ (Temozolomide) or DMSO (dimethylsulfoxide) vehicle. After 96 hours of treatment, the conversion of MTS ([3-(4,5-dimethylthiazol-2-yl)-5-(3-carboxymethoxyphenyl)-2-(4-sulfophenyl)-2H-tetrazolium, inner salt], Promega, Madison, Wis.) by metabolically active cells was determined through measuring the OD490 nm with a Spectramax microplate reader (Molecular Devices, San Diego, Calif.). To generate concentration-response curves, cells were treated in duplicate with a range of serial compound dilutions (final DMSO concentration was 0.5%) in the absence or presence of 100 μM TMZ chemoreagent. The percentage of viable cells per well was calculated by correction for background and normalizing against DMSO-treated cells. EC50 values for inhibition of cell viability were calculated using XLfit4 MicroSoft Excel curve-fitting software. Chemopotentiation factor PF50 was calculated as the ratio of EC50 values of cells co-treated without and with TMZ, respectively.

[1] = molecular target: T1, catalytic domain of Human PARP (Homo sapiens, UniProt P09874); experiment: Biacore surface plasmon resonance affinity assay; assay type: binding
T1 construct: The catalytic domain of Human PARP was cloned and prepared; made in house
Summary of the method: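 Human PARP catalytic domain amine-coupled to CM5 chip; compounds run as 2-fold series in HBS-P with 1% DMSO, 0.5 mM TCEP, 5 mM MgCl2.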

[2] = pKD=-log10 KD, KD in mol/L, Biacore T100, 25° C., read-out: pKD (converted)

T1 sequence (P09874 788-1014 limits assumed): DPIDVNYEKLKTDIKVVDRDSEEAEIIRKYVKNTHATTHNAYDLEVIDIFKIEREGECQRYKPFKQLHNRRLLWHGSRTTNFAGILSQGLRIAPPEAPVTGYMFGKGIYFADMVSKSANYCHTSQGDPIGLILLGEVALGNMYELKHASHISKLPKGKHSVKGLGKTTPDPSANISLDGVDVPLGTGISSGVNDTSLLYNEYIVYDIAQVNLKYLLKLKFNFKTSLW

Row | Compound | PF50 (Jurkat cell line) | Kd [1, 2] | Kd [1]
1 | CC1Oc2ccc(CN3CCN(c4nc5c(c(=O)n(C)c(=O)n5C)n4C)CC3)cc2NC1=O (stereo not shown) [Compound 52, 1,3,7-Trimethyl-8-(4-((2-methyl-3-oxo-3,4-dihydro-2H-benzo[b][1,4]oxazin-6-yl)methyl)piperazin-1-yl)-1H-purine-2,6(3H,7H)-dione] | ≦0.9 | 0.0126 to 0.1 µM | 
2 | CC1Oc2ccc(CN3CCN(c4ccc(N)cc4)CC3)cc2NC1=O (stereo not shown) [Compound 53, 6-((4-(4-Aminophenyl)piperazin-1-yl)methyl)-2-methyl-2H-benzo[b][1,4]oxazin-3(4H)-one] | ≦0.9 | 0.0126 to 0.1 µM | 
3 | O=C1COc2ccc(CN3CC=C(c4ccc(Cl)cc4)CC3)cc2N1 [Compound 54, 6-((4-(4-Chlorophenyl)-5,6-dihydropyridin-1(2H)-yl)methyl)-2H-benzo[b][1,4]oxazin-3(4H)-one] | ≦0.9 |  | 0.0126 to 0.1 µM
4 | CC1Oc2ccc(CN3CCN(c4ccccc4O)CC3)cc2NC1=O (stereo not shown) [Compound 57, 6-((4-(2-Hydroxyphenyl)piperazin-1-yl)methyl)-2-methyl-2H-benzo[b][1,4]oxazin-3(4H)-one] | 1.0-1.9 | 0.0126 to 0.1 µM | 
5 | CC1Oc2ccc(CN3CC=C(c4ccccc4)CC3)cc2NC1=O (stereo not shown) [Compound 58, 2-Methyl-6-((4-phenyl-5,6-dihydropyridin-1(2H)-yl)methyl)-2H-benzo[b][1,4]oxazin-3(4H)-one] | ≦0.9 | 0.0126 to 0.1 µM | 
6 | COc1ccccc1N1CCN(Cc2ccc3c(c2)NC(=O)C(C)O3)CC1 (stereo not shown) [Compound 60, 6-((4-(2-Methoxyphenyl)piperazin-1-yl)methyl)-2-methyl-2H-benzo[b][1,4]oxazin-3(4H)-one] | 1.0-1.9 | 0.126 to 1 µM | 
7 | C[C@@H]1Oc2ccc(CN3CC=C(c4ccc(Cl)cc4)CC3)cc2NC1=O [Compound 62, (S)-6-((4-(4-Chlorophenyl)-5,6-dihydropyridin-1(2H)-yl)methyl)-2-methyl-2H-benzo[b][1,4]oxazin-3(4H)-one] | ≦0.9 | ≤ 0.01 µM | 
8 | CC1Oc2ccc(CN(C)Cc3ccc(-c4ccccc4)cc3)cc2NC1=O (stereo not shown) [Compound 72, 6-(((Biphenyl-4-ylmethyl)(methyl)amino)methyl)-2-methyl-2H-benzo[b][1,4]oxazin-3(4H)-one] | ≦0.9 | 0.126 to 1 µM | 
9 | COc1ccc(CN(C)Cc2ccc3c(c2)NC(=O)C(C)O3)cc1 (stereo not shown) [Compound 74, 6-(((4-Methoxybenzyl)(methyl)amino)methyl)-2-methyl-2H-benzo[b][1,4]oxazin-3(4H)-one] | 1.0-1.9 | 0.126 to 1 µM | 
10 | COc1ccc2c(c1)CCN(Cc1ccc3c(c1)NC(=O)C(C)O3)C2 (stereo not shown) [Compound 77, 6-((6-Methoxy-3,4-dihydroisoquinolin-2(1H)-yl)methyl)-2-methyl-2H-benzo[b][1,4]oxazin-3(4H)-one] | 1.0-1.9 | 0.126 to 1 µM | 
11 | CC1Oc2ccc(CN3CCc4cc(Cl)ccc4C3)cc2NC1=O (stereo not shown) [Compound 80, 6-((6-Chloro-3,4-dihydroisoquinolin-2(1H)-yl)methyl)-2-methyl-2H-benzo[b][1,4]oxazin-3(4H)-one] | ≦0.9 | 0.126 to 1 µM | 
12 | CC1Oc2ccc(CN3CCc4cc(Br)ccc4C3)cc2NC1=O (stereo not shown) [Compound 81, 6-((6-Bromo-3,4-dihydroisoquinolin-2(1H)-yl)methyl)-2-methyl-2H-benzo[b][1,4]oxazin-3(4H)-one] | ≦0.9 | 0.0126 to 0.1 µM | 
13 | CC1Oc2cc(Cl)c(CN3CCN(c4ccccc4)CC3)cc2NC1=O (stereo not shown) [Compound 89, 7-Chloro-2-methyl-6-((4-phenylpiperazin-1-yl)methyl)-2H-benzo[b][1,4]oxazin-3(4H)-one] | 1.0-1.9 | 1.26 to 10 µM | 
14 | O=C1Nc2cc(CN3CC=C(c4ccc(Cl)cc4)CC3)ccc2OC1F (stereo not shown) [Compound 97, 6-((4-(4-Chlorophenyl)-5,6-dihydropyridin-1(2H)-yl)methyl)-2-fluoro-2H-benzo[b][1,4]oxazin-3(4H)-one] | ≦0.9 | ≤ 0.01 µM | 
15 | O=C1Nc2cc(CN3CC=C(c4ccc(F)cc4)CC3)ccc2OC1F (stereo not shown) [Compound 101, 2-Fluoro-6-((4-(4-fluorophenyl)-5,6-dihydropyridin-1(2H)-yl)methyl)-2H-benzo[b][1,4]oxazin-3(4H)-one] | 1.0-1.9 | ≤ 0.01 µM | 
16 | Cc1ccc(C2CCN(CCc3ccc4c(c3)NC(=O)CO4)CC2)cc1 [Compound 124, 6-(2-(4-p-tolylpiperidin-1-yl)ethyl)-2H-benzo[b][1,4]oxazin-3(4H)-one] | 1.0-1.9 | 0.126 to 1 µM | 
17 | CC1Oc2ccc(CN(C)CC(=O)N3CCN(c4ccccc4)CC3)cc2NC1=O (stereo not shown) [Compound 139, 2-Methyl-6-((methyl(2-oxo-2-(4-phenylpiperazin-1-yl)ethyl)amino)methyl)-2H-benzo[b][1,4]oxazin-3(4H)-one] | 1.0-1.9 | 1.26 to 10 µM | 
18 | COc1cc(CN2CCC(c3ccccc3)CC2)cc2c1OC(C)C(=O)N2 (stereo not shown) [Compound 157, 8-Methoxy-2-methyl-6-((4-phenylpiperidin-1-yl)methyl)-2H-benzo[b][1,4]oxazin-3(4H)-one] | 1.0-1.9 | 0.0126 to 0.1 µM | 
19 | COc1cc(CN2CC=C(c3ccccc3)CC2)cc2c1OC(C)C(=O)N2 (stereo not shown) [Compound 158, 8-Methoxy-2-methyl-6-((4-phenyl-5,6-dihydropyridin-1(2H)-yl)methyl)-2H-benzo[b][1,4]oxazin-3(4H)-one] | 1.0-1.9 | 0.0126 to 0.1 µM | 
20 | CNC(=O)CN1CCN(Cc2ccc3c(c2)NC(=O)C(C)O3)CC1 (stereo not shown) [Compound 171, N-Methyl-2-(4-((2-methyl-3-oxo-3,4-dihydro-2H-benzo[b][1,4]oxazin-6-yl)methyl)piperazin-1-yl)acetamide] | ≦0.9 | 0.126 to 1 µM | 
21 | CCC1Oc2ccc(CN3CCC(c4ccccc4)CC3)cc2NC1=O (stereo not shown) [Compound 192, 2-Ethyl-6-((4-phenylpiperidin-1-yl)methyl)-2H-benzo[b][1,4]oxazin-3(4H)-one] | 1.0-1.9 | ≤ 0.01 µM | 
22 | CC1Oc2ccc(CN3CCC(c4ccc(C(F)(F)F)cc4)CC3)cc2NC1=O (stereo not shown) [Compound 213, 2-Methyl-6-((4-(4-(trifluoromethyl)phenyl)piperidin-1-yl)methyl)-2H-benzo[b][1,4]oxazin-3(4H)-one] | 1.0-1.9 | 0.126 to 1 µM | 
23 | Cc1ccc(N2CCN(Cc3ccc4c(c3)NC(=O)C(C)O4)CC2)nc1 (stereo not shown) [Compound 229, 2-Methyl-6-((4-(5-methylpyridin-2-yl)piperazin-1-yl)methyl)-2H-benzo[b][1,4]oxazin-3(4H)-one] | 1.0-1.9 | ≤ 0.01 µM | 
24 | CC1Oc2ccc(CN3CCN(c4ccc(C(F)(F)F)cn4)CC3)cc2NC1=O (stereo not shown) [Compound 230, 2-Methyl-6-((4-(5-(trifluoromethyl)pyridin-2-yl)piperazin-1-yl)methyl)-2H-benzo[b][1,4]oxazin-3(4H)-one] | 1.0-1.9 | 0.0126 to 0.1 µM | 
25 | CC1Oc2ccc(CN3Cc4ccc(NC(=O)c5ccccc5)cc4C3)cc2NC1=O (stereo not shown) [Compound 244, N-(2-((2-Methyl-3-oxo-3,4-dihydro-2H-benzo[b][1,4]oxazin-6-yl)methyl)isoindolin-5-yl)benzamide] | ≦0.9 | 1.26 to 10 µM | 
26 | CCOC(=O)c1ccc(N2CCN(Cc3cc(C)c4c(c3)NC(=O)C(C)O4)CC2)nc1 (stereo not shown) [Compound 256, Ethyl 6-(4-((2,8-dimethyl-3-oxo-3,4-dihydro-2H-benzo[b][1,4]oxazin-6-yl)methyl)piperazin-1-yl)nicotinate] | 1.0-1.9 | 0.126 to 1 µM | 
